Test results: PubChem BioAssay AID330 (DTP/NCI, 2004)
Inconclusive results and toxic doses are left out.

System: P388 leukemia ip, CD2F1 mice, survival T/C
Assay: NCI In Vivo Anticancer Drug Screen. Data for tumor model P388 Leukemia (intraperitoneal) in CD2F1 (CDF1) mice
Details: endpoint: median survival time, higher = longer survival
Outline: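 Mice carrying the transplanted tumor received test compound or vehicle. Survival was recorded in each group, and the value is the treated-group measurement divided by that of the vehicle-treated control group.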

[1] = dose: 60.0 mg/kg/injection, schedule: Q01DX005 (ip), vehicle: saline with Tween-80
[2] = dose: 120.0 mg/kg/injection, schedule: Q01DX005 (ip), vehicle: saline with Tween-80
[3] = dose: 240.0 mg/kg/injection, schedule: Q01DX005 (ip), vehicle: saline with Tween-80
[4] = dose: 60.0 mg/kg/injection, schedule: Q01DX005 (ip), vehicle: saline
[5] = dose: 120.0 mg/kg/injection, schedule: Q01DX005 (ip), vehicle: saline

SMILES: COC(=O)C(C)N(CCCl)P(=O)(N1CC1)N1CC1 (stereo unspecified)
- T/C (dose: 7.5 mg/kg/injection, schedule: Q01DX005 (ip), vehicle: saline): 119 % of control
- T/C (dose: 30.0 mg/kg/injection, schedule: Q01DX005 (ip), vehicle: saline): 182 % of control

SMILES: Cc1c(C)c(C)c(S(=O)(=O)NCCCNS(=O)(=O)c2c(C)c(C)c(C)c(C)c2C)c(C)c1C
- T/C (dose: 50.0 mg/kg/injection, schedule: Q01DX005 (ip), vehicle: Klucel (hydroxypropylcellulose) (HPC)): 98 % of control
- T/C (dose: 100.0 mg/kg/injection, schedule: Q01DX005 (ip), vehicle: Klucel (hydroxypropylcellulose) (HPC)): 94 % of control
- T/C (dose: 200.0 mg/kg/injection, schedule: Q01DX005 (ip), vehicle: Klucel (hydroxypropylcellulose) (HPC)): 89 % of control

SMILES: O=P(CSCCO)(c1ccccc1)c1ccccc1
- T/C [1]: 89 % of control
- T/C [2]: 93 % of control
- T/C [3]: 97 % of control

SMILES: NC1C=NNC1=O (stereo unspecified)
- T/C [1]: 110 % of control
- T/C [2]: 116 % of control
- T/C [3]: 116 % of control

SMILES: Cc1cccc(Cl)c1NC(=O)Nc1cccc(C#N)c1
- T/C [1]: 93 % of control
- T/C [2]: 89 % of control
- T/C [3]: 98 % of control

SMILES: CCCOc1ccc2c(NCCCCCCNc3c4ccccc4nc4cc(OCCC)ccc34)c3ccccc3nc2c1
- T/C (dose: 0.62 mg/kg/injection, schedule: Q## X009 (ip), vehicle: lactic acid): 121 % of control
- T/C (dose: 2.5 mg/kg/injection, schedule: Q## X009 (ip), vehicle: lactic acid): 120 % of control
- T/C (dose: 5.0 mg/kg/injection, schedule: Q## X009 (ip), vehicle: lactic acid): 105 % of control

SMILES: O=c1[nH]c(=O)n(C2OC(CO)C(O)C2O)cc1O (stereo unspecified)
- T/C [4]: 102 % of control
- T/C [5]: 101 % of control
- T/C (dose: 240.0 mg/kg/injection, schedule: Q01DX005 (ip), vehicle: saline): 103 % of control

SMILES: CCC[CH2][Sn]([CH2]CCC)([O]C(C)=O)[c]1ccccc1
- T/C (dose: 1.56 mg/kg/injection, schedule: Q01DX009 (ip), vehicle: saline): 97 % of control
- T/C (dose: 3.12 mg/kg/injection, schedule: Q01DX009 (ip), vehicle: saline): 103 % of control
- T/C (dose: 6.25 mg/kg/injection, schedule: Q01DX009 (ip), vehicle: saline): 96 % of control
- T/C (dose: 50.0 mg/kg/injection, schedule: Q01DX009 (ip), vehicle: saline): 97 % of control
- T/C (dose: 100.0 mg/kg/injection, schedule: Q01DX009 (ip), vehicle: saline): 95 % of control
- T/C (dose: 200.0 mg/kg/injection, schedule: Q01DX009 (ip), vehicle: saline): 100 % of control

SMILES: C/C=C\C#C/C=C1/C=CC(=O)O1
- T/C (dose: 12.5 mg/kg/injection, schedule: Q01DX009 (ip), vehicle: Klucel (hydroxypropylcellulose) (HPC)): 105 % of control
- T/C (dose: 25.0 mg/kg/injection, schedule: Q01DX009 (ip), vehicle: Klucel (hydroxypropylcellulose) (HPC)): 105 % of control
- T/C (dose: 50.0 mg/kg/injection, schedule: Q01DX009 (ip), vehicle: Klucel (hydroxypropylcellulose) (HPC)): 108 % of control
- T/C (dose: 100.0 mg/kg/injection, schedule: Q01DX009 (ip), vehicle: Klucel (hydroxypropylcellulose) (HPC)): 108 % of control

SMILES: COC(=O)c1[se]c(=[Se])[se]c1C(=O)OC
- T/C (dose: 200.0 mg/kg/injection, schedule: Q01DX001 (ip), vehicle: Klucel (hydroxypropylcellulose) (HPC)): 88 % of control

SMILES: Cc1ccc(NC(=O)/C=C2\CONC(c3ccccc3)=N2)cc1
- T/C [1]: 91 % of control
- T/C [2]: 91 % of control

SMILES: CN(C)CCSc1nc2ccccc2o1
- T/C [4]: 105 % of control
- T/C [5]: 104 % of control

SMILES: CN(C)CCN1C(=O)Cc2ccccc2C1=O
- T/C (dose: 12.5 mg/kg/injection, schedule: Q01DX001 (ip), vehicle: saline): 111 % of control
- T/C (dose: 25.0 mg/kg/injection, schedule: Q01DX001 (ip), vehicle: saline): 109 % of control
- T/C (dose: 50.0 mg/kg/injection, schedule: Q01DX001 (ip), vehicle: saline): 101 % of control

SMILES: CCOC(=O)n1oc2c(Br)cc(Br)cc2c1=O
- T/C (dose: 50.0 mg/kg/injection, schedule: Q04DX002 (ip), vehicle: Klucel (hydroxypropylcellulose) (HPC)): 105 % of control
- T/C (dose: 100.0 mg/kg/injection, schedule: Q04DX002 (ip), vehicle: Klucel (hydroxypropylcellulose) (HPC)): 99 % of control
- T/C (dose: 200.0 mg/kg/injection, schedule: Q04DX002 (ip), vehicle: Klucel (hydroxypropylcellulose) (HPC)): 101 % of control
